ChEMBL document CHEMBL1131172 (J Med Chem, 1998)

Assays:
SR [1] = experiment: Inhibition of the growth of leukemia(SR) cell line; type: functional; conditions: Homo sapiens
KM12 [2] = experiment: inhibition of the growth of colon cancer(KM-12) cell line; type: functional; conditions: Homo sapiens
HCT-15 [3] = experiment: inhibition of the growth of colon cancer(HCT-15) cell line; type: functional; conditions: Homo sapiens
SR [4] = experiment: Inhibition of the growth of leukemia(SR) cell line at 0.01 uM; type: functional; conditions: Homo sapiens
SF-295 [5] = experiment: inhibition of the growth of CNS cancer(SF-295) cell line; type: functional; conditions: Homo sapiens
Dihydrofolate reductase [6] = target: T1, Dihydrofolate reductase (Rattus norvegicus, UniProt Q920D2)
T1 sequence (Q920D2 whole entry): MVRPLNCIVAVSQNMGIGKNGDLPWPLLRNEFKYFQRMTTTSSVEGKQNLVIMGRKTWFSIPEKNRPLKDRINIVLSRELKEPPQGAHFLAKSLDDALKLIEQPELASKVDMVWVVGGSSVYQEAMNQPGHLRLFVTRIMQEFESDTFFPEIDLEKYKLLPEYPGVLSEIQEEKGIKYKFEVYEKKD
Description: Inhibitory activity against dihydrofolate reductase (DHFR) from rat liver

IGROV-1 [7] = experiment: Inhibition of the growth of ovarian cancer(IGROVI) cell line at 0.01 uM; type: functional; conditions: Homo sapiens
786-0 [8] = experiment: Inhibition of the growth of renal cancer(786-0) cell line at 0.01 uM; type: functional; conditions: Homo sapiens
NCI-H322M [9] = experiment: Inhibition of the growth of non-small-cell lung cancer (NCI-H322M) cell line at 0.01 uM; type: functional; conditions: Homo sapiens
MOLT-4 [10] = experiment: Inhibition of the growth of leukemia (MOLT-4) cell line; type: functional; conditions: Homo sapiens
NCI-H322M [11] = experiment: inhibition of the growth of non-small-cell lung cancer (NCI-H322M) cell line; type: functional; conditions: Homo sapiens
RPMI-8226 [12] = experiment: Inhibition of the growth of leukemia (RPMI-8226) cell line; type: functional; conditions: Homo sapiens
DU-145 [13] = experiment: Inhibition of the growth of prostate cancer(DU-145) cell line at 0.01 uM; type: functional; conditions: Homo sapiens
OVCAR-8 [14] = experiment: Inhibition of the growth of ovarian cancer(OVCAR-8) cell line at 0.01 uM; type: functional; conditions: Homo sapiens
NCI-H23 [15] = experiment: inhibition of the growth of non-small-cell lung cancer (NCI-H23) cell line; type: functional; conditions: Homo sapiens
HCT-116 [16] = experiment: Inhibition of the growth of colon cancer(HCT116) cell line; type: functional; conditions: Homo sapiens
NCI-H522 [17] = experiment: Inhibition of the growth of non-small-cell lung cancer (NCI-H522) cell line; type: functional; conditions: Homo sapiens
NCI-H460 [18] = experiment: inhibition of the growth of non-small-cell lung cancer (NCI-H460) cell line; type: functional; conditions: Homo sapiens
A549 [19] = experiment: Inhibition of the growth of non-small-cell lung cancer (A549/ATCC) cell line; type: functional; conditions: Homo sapiens
DU-145 [20] = experiment: inhibition of the growth of prostate cancer(DU-145) cell line; type: functional; conditions: Homo sapiens
NCI/ADR-RES [21] = experiment: inhibition of the growth of breast cancer (MCF7/ADR-RES) cell line; type: functional; conditions: Homo sapiens
MCF7 [22] = experiment: Inhibition of the growth of breast cancer (MCF-7) cell line at 0.01 uM; type: functional; conditions: Homo sapiens
NCI/ADR-RES [23] = experiment: Inhibition of the growth of breast cancer (MCF7/ADR-RES) cell line at 0.01 uM; type: functional; conditions: Homo sapiens
786-0 [24] = experiment: inhibition of the growth of renal cancer(786-0) cell line; type: functional; conditions: Homo sapiens
SF-539 [25] = experiment: inhibition of the growth of CNS cancer(SF-539) cell line; type: functional; conditions: Homo sapiens
Dihydrofolate reductase [26] = target: T2, Dihydrofolate reductase (Pneumocystis carinii, UniProt P16184)
T2 sequence (P16184 whole entry): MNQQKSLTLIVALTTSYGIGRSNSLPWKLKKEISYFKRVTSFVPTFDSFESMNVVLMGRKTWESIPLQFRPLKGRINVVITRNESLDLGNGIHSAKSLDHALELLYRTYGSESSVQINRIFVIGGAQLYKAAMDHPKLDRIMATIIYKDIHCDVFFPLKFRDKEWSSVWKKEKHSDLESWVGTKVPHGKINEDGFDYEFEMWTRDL
Description: Inhibitory activity against dihydrofolate reductase (DHFR) from Pneumocystis carinii

M14 [27] = experiment: Inhibition of the growth of melanoma cancer (M14) cell line at 0.01 uM; type: functional; conditions: Homo sapiens
MDA-N [28] = experiment: inhibition of the growth of breast cancer(MDA-N) cell line; type: functional; conditions: Homo sapiens
KM12 [29] = experiment: Inhibition of the growth of colon cancer(KM-12) cell line at 0.01 uM; type: functional; conditions: Homo sapiens
NCI-H23 [30] = experiment: inhibition of the growth of non-small-cell lung cancer (NCI-H23) cell line at 0.01 uM; type: functional; conditions: Homo sapiens
A549 [31] = experiment: Inhibition of the growth of non-small-cell lung cancer (A549/ATCC) cell line at 0.01 uM; type: functional; conditions: Homo sapiens
IGROV-1 [32] = experiment: inhibition of the growth of ovarian cancer(IGROVI) cell line; type: functional; conditions: Homo sapiens
SNB-19 [33] = experiment: Inhibition of the growth of CNS cancer(SNB-19) cell line at 0.01 uM; type: functional; conditions: Homo sapiens
OVCAR-8 [34] = experiment: inhibition of the growth of ovarian cancer(OVCAR-8) cell line; type: functional; conditions: Homo sapiens
UO-31 [35] = experiment: inhibition of the growth of renal cancer(UO-31) cell line; type: functional; conditions: Homo sapiens
CAKI-1 [36] = experiment: inhibition of the growth of renal cancer(CAKI-1) cell line; type: functional; conditions: Homo sapiens
MOLT-4 [37] = experiment: Inhibition of the growth of leukemia (MOLT-4) cell line at 0.01 uM; type: functional; conditions: Homo sapiens
MDA-MB-435 [38] = experiment: Inhibition of the growth of breast cancer (MDA-MB-435) cell line; type: functional; conditions: Homo sapiens
SF-268 [39] = experiment: inhibition of the growth of CNS cancer(SF-268) cell line; type: functional; conditions: Homo sapiens
MDA-N [40] = experiment: Inhibition of the growth of breast cancer(MDA-N) cell line at 0.01 uM; type: functional; conditions: Homo sapiens
SK-MEL-5 [41] = experiment: inhibition of the growth of melanoma cancer (SK-MEL-5) cell line; type: functional; conditions: Homo sapiens
HCT-116 [42] = experiment: Inhibition of the growth of colon cancer(HCT116) cell line at 0.01 uM; type: functional; conditions: Homo sapiens
CAKI-1 [43] = experiment: Inhibition of the growth of renal cancer(CAKI-1) cell line at 0.01 uM; type: functional; conditions: Homo sapiens
[44] = target: T3, Bifunctional dihydrofolate reductase-thymidylate synthase (Toxoplasma gondii, UniProt Q07422)
T3 sequence (Q07422 whole entry): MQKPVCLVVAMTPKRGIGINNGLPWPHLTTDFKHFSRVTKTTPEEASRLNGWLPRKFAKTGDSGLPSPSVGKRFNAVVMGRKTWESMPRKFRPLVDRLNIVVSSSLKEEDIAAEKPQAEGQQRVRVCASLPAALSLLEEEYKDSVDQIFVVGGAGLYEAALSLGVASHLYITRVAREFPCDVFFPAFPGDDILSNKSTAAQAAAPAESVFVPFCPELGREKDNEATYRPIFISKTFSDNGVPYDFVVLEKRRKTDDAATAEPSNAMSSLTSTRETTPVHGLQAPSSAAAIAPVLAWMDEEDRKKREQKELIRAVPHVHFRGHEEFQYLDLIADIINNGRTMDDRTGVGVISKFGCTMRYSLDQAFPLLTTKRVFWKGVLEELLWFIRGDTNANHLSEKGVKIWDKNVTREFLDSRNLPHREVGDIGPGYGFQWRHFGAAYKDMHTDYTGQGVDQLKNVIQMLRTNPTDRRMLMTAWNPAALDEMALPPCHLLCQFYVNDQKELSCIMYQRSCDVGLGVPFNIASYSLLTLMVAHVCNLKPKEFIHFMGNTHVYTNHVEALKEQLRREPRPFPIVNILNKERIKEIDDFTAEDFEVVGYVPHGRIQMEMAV
Description: Inhibitory activity against dihydrofolate reductase (DHFR) from Toxoplasma gondii

SF-539 [45] = experiment: Inhibition of the growth of CNS cancer(SF-539) cell line at 0.01 uM; type: functional; conditions: Homo sapiens
MDA-MB-435 [46] = experiment: Inhibition of the growth of breast cancer (MDA-MB-435) cell line at 0.01 uM; type: functional; conditions: Homo sapiens
MCF7 [47] = experiment: inhibition of the growth of breast cancer (MCF-7) cell line; type: functional; conditions: Homo sapiens
SK-MEL-5 [48] = experiment: Inhibition of the growth of melanoma cancer (SK-MEL-5) cell line at 0.01 uM; type: functional; conditions: Homo sapiens
SNB-19 [49] = experiment: inhibition of the growth of CNS cancer(SNB-19) cell line; type: functional; conditions: Homo sapiens
M14 [50] = experiment: inhibition of the growth of melanoma cancer (M14) cell line; type: functional; conditions: Homo sapiens
SF-295 [51] = experiment: Inhibition of the growth of CNS cancer(SF-295) cell line at 0.01 uM; type: functional; conditions: Homo sapiens
NCI-H460 [52] = experiment: Inhibition of the growth of non-small-cell lung cancer (NCI-H460) cell line at 0.01 uM; type: functional; conditions: Homo sapiens
UO-31 [53] = experiment: Inhibition of the growth of renal cancer(UO-31) cell line at 0.01 uM; type: functional; conditions: Homo sapiens
NCI-H522 [54] = experiment: Inhibition of the growth of non-small-cell lung cancer (NCI-H522) cell line at 0.01 uM; type: functional; conditions: Homo sapiens
RPMI-8226 [55] = experiment: Inhibition of the growth of leukemia (RPMI-8226) cell line AT 0.01 uM; type: functional; conditions: Homo sapiens
HCT-15 [56] = experiment: Inhibition of the growth of colon cancer(HCT-15) cell line at 0.01 uM; type: functional; conditions: Homo sapiens
SF-268 [57] = experiment: Inhibition of the growth of CNS cancer(SF-268) cell line at 0.01 uM; type: functional; conditions: Homo sapiens

COc1ccc(N(C)c2ccc3nc(N)nc(N)c3n2)cc1OC
GI50 (SR [1]): < 10 nM
GI50 (KM12 [2]): < 10 nM
GI50 (HCT-15 [3]): < 10 nM
inhibition at 0.01 µM (SR [4]): 69%
GI50 (SF-295 [5]): < 10 nM
IC50 (Dihydrofolate reductase [6]): 0.4 nM
inhibition at 0.01 µM (IGROV-1 [7]): 65%
inhibition at 0.01 µM (786-0 [8]): 53%
inhibition at 0.01 µM (NCI-H322M [9]): 53%
GI50 (MOLT-4 [10]): < 10 nM
GI50 (NCI-H322M [11]): < 10 nM
GI50 (RPMI-8226 [12]): < 10 nM
inhibition at 0.01 µM (DU-145 [13]): 57%
inhibition at 0.01 µM (OVCAR-8 [14]): 76%
GI50 (NCI-H23 [15]): < 10 nM
GI50 (HCT-116 [16]): < 10 nM
GI50 (NCI-H522 [17]): < 10 nM
GI50 (NCI-H460 [18]): < 10 nM
GI50 (A549 [19]): < 10 nM
GI50 (DU-145 [20]): < 10 nM
GI50 (NCI/ADR-RES [21]): < 10 nM
inhibition at 0.01 µM (MCF7 [22]): 60%
inhibition at 0.01 µM (NCI/ADR-RES [23]): 84%
GI50 (786-0 [24]): < 10 nM
GI50 (SF-539 [25]): < 10 nM
IC50 (Dihydrofolate reductase [26]): 2.3 nM
inhibition at 0.01 µM (M14 [27]): 59%
GI50 (MDA-N [28]): < 10 nM
inhibition at 0.01 µM (KM12 [29]): 56%
inhibition at 0.01 µM (NCI-H23 [30]): 82%
inhibition at 0.01 µM (A549 [31]): 70%
GI50 (IGROV-1 [32]): < 10 nM
inhibition at 0.01 µM (SNB-19 [33]): 90%
GI50 (OVCAR-8 [34]): < 10 nM
GI50 (UO-31 [35]): < 10 nM
GI50 (CAKI-1 [36]): < 10 nM
inhibition at 0.01 µM (MOLT-4 [37]): 57%
GI50 (MDA-MB-435 [38]): < 10 nM
GI50 (SF-268 [39]): < 10 nM
inhibition at 0.01 µM (MDA-N [40]): 63%
GI50 (SK-MEL-5 [41]): < 10 nM
inhibition at 0.01 µM (HCT-116 [42]): 83%
inhibition at 0.01 µM (CAKI-1 [43]): 81%
IC50 [44]: 0.88 nM
inhibition at 0.01 µM (SF-539 [45]): 67%
inhibition at 0.01 µM (MDA-MB-435 [46]): 72%
GI50 (MCF7 [47]): < 10 nM
inhibition at 0.01 µM (SK-MEL-5 [48]): 83%
GI50 (SNB-19 [49]): < 10 nM
GI50 (M14 [50]): < 10 nM
inhibition at 0.01 µM (SF-295 [51]): 68%
inhibition at 0.01 µM (NCI-H460 [52]): 83%
inhibition at 0.01 µM (UO-31 [53]): 100%
inhibition at 0.01 µM (NCI-H522 [54]): 59%
inhibition at 0.01 µM (RPMI-8226 [55]): 69%
inhibition at 0.01 µM (HCT-15 [56]): 75%
inhibition at 0.01 µM (SF-268 [57]): 52%
